Experimental findings from patent US20260022142A1, “MACROCYCLIC IMMUNOMODULATORS” (Bristol-Myers Squibb Company, priority 2022, published 2026) are described below.

As usually defined, the IC50 is the concentration at which inhibition is half-maximal.

SMILES strings stand for the structures. Bridge positions count the residues as written; N and C are the ends. Square brackets hold non-standard residues; d marks the D form. Peptide text beside a SMILES is read from it. * marks the point of attachment. Phe(4-CH2CH2COOH) = N[C@@H](Cc1ccc(CCC(=O)O)cc1)C(=O)O; Trp(βS-Me) = C[C@@H](c1c[nH]c2ccccc12)[C@H](N)C(=O)O; Bip = N[C@@H](Cc1ccc(-c2ccccc2)cc1)C(=O)O; Phe(3-Me) = Cc1cccc(C[C@H](N)C(=O)O)c1; Abu(3S-NH2) = C[C@H](N)[C@H](N)C(=O)O; His(π-Me) = Cn1cncc1C[C@H](N)C(=O)O; Val(3-OH) = CC(C)(O)[C@H](N)C(=O)O; 4Pal = N[C@@H](Cc1ccncc1)C(=O)O; Cha = N[C@@H](CC1CCCCC1)C(=O)O; Cit = NC(=O)NCCC[C@H](N)C(=O)O; Carboxymethyl = O=C(O)C*; Orn = NCCC[C@H](N)C(=O)O; Aun = NCCCCCCCCCCC(=O)O; Dab = NCC[C@H](N)C(=O)O; Ac3c = NC1(C(=O)O)CC1

T1 sequence (Q15116 25-288): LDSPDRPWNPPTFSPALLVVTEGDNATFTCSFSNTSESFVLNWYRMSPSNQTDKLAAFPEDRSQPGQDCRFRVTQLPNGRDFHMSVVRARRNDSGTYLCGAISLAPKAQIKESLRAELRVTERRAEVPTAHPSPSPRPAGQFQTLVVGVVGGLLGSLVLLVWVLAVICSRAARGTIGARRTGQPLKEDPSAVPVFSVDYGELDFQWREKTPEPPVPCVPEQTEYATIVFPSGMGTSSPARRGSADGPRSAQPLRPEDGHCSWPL

The assay has as its target T1, PD-1/PD-L1 interaction (PE-labeled human PD-L1-Ig binding to Jurkat cell line over-expressing human PD-1) (Homo sapiens, UniProt Q15116).
T1 construct: expressed in transfected cells; host or cells: Jurkat
Description: Jurkat-PD-1 Cell Binding High-Content Screening Assay (CBA). It counts as cell-based. Particulars: Jurkat cell line over-expressing human PD-1; PE-labeled PD-L1-Ig 20 nM final; read-out: Jurkat hPD1-PDL1 IC50. An outline of the steps:
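Human PD-L1-Ig carrying a covalent PE label on its Ig tag serves as the probe, applied at 20 nM final to compound-treated (2 h, 37° C) Jurkat-hPD-1 cells in medium with 10% fetal calf serum. After one hour, fixation and nuclear staining precede high-content image analysis.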
For `Cc1cccc(C[C@@H]2NC(=O)[C@H](CC(=O)O)NC(=O)[C@H](Cc3ccc(OCC(=O)O)cc3)NC(=O)[C@H](CCCNC(=N)N)NC(=O)CSC[C@@H](C(=O)N[C@@H](CCN)C(=O)NCCCCCCCCCCC(=O)O)NC(=O)[C@H](CCC(N)=O)NC(=O)[C@H](C(C)C)NC(=O)[C@H](CC3CCCCC3)NC(=O)[C@H](CCN)NC(=O)[C@@H](CC(C)C)NC(=O)[C@H](CCCN)NC(=O)[C@H](Cc3ccc(O)cc3)NC(=O)[C@H](Cc3ccc(-c4ccccc4)cc3)NC(=O)[C@H](Cc3ccc(CCC(=O)O)cc3)NC2=O)c1` [Compound 2131] ({CH2CO}-RY(Carboxymethyl)D[Phe(3-Me)][Phe(4-CH2CH2COOH)][Bip]Y[Orn][dL][Dab][Cha]VQC[Dab][Aun]-OH; thioether N-14), the concentration for half-maximal inhibition (IC50) is 0.0058 µM.

As for `Cc1cccc(C[C@@H]2NC(=O)[C@H](CC(=O)O)NC(=O)[C@H](Cc3ccc(OCC(=O)O)cc3)NC(=O)[C@H](CCCNC(=N)N)NC(=O)CSC[C@@H](C(=O)NC3(C(=O)NCCCCCCCCCCC(=O)O)CC3)NC(=O)[C@H]([C@@H](C)O)NC(=O)[C@H](C(C)C)NC(=O)[C@H](CC3CCCCC3)NC(=O)[C@H](CCN)NC(=O)[C@@H](CC(C)C)NC(=O)[C@H](CCCN)NC(=O)[C@H](Cc3ccc(OCC(=O)O)cc3)NC(=O)[C@H](Cc3ccc(-c4ccccc4)cc3)NC(=O)[C@H](Cc3ccc(CCC(=O)O)cc3)NC2=O)c1` [Compound 2132] ({CH2CO}-RY(Carboxymethyl)D[Phe(3-Me)][Phe(4-CH2CH2COOH)][Bip]Y(Carboxymethyl)[Orn][dL][Dab][Cha]VTC[Ac3c][Aun]-OH; thioether N-14), the IC50 was 0.0115 µM.

`CC(C)C[C@H]1NC(=O)[C@H](CCCN)NC(=O)[C@H](Cc2ccc(O)cc2)NC(=O)[C@H](Cc2ccc(-c3ccccc3)cc2)NC(=O)[C@H](C(C)C)NC(=O)[C@H]([C@@H](C)c2c[nH]c3ccccc23)NC(=O)[C@H](CC(=O)O)NC(=O)[C@H](Cc2ccc(OCC(=O)O)cc2)NC(=O)[C@H](CCCNC(=N)N)NC(=O)CSC[C@@H](C(=O)NC2(C(=O)NCCCCCCCCCCC(=O)O)CC2)NC(=O)[C@H]([C@@H](C)O)NC(=O)[C@H](C(C)C)NC(=O)[C@H](CC2CCCCC2)NC(=O)[C@H](CCN)NC1=O` [Compound 2133] ({CH2CO}-RY(Carboxymethyl)D[Trp(βS-Me)]V[Bip]Y[Orn][dL][Dab][Cha]VTC[Ac3c][Aun]-OH; thioether N-14): the IC50 amounted to 0.0588 µM.

On to `CC(C)C[C@H]1NC(=O)[C@H](CCCN)NC(=O)[C@H](CCCNC(N)=O)NC(=O)[C@H](Cc2ccc(-c3ccccc3)cc2)NC(=O)[C@H](C(C)C)NC(=O)[C@H]([C@@H](C)c2c[nH]c3ccccc23)NC(=O)[C@H](CC(=O)O)NC(=O)[C@H](Cc2ccc(OCC(=O)O)cc2)NC(=O)[C@H](CCCNC(=N)N)NC(=O)CSC[C@@H](C(=O)NC2(C(=O)NCCCCCCCCCCC(=O)O)CC2)NC(=O)[C@H]([C@@H](C)O)NC(=O)[C@H](C(C)C)NC(=O)[C@H](CC2CCCCC2)NC(=O)[C@H](CCN)NC1=O` [Compound 2134] ({CH2CO}-RY(Carboxymethyl)D[Trp(βS-Me)]V[Bip][Cit][Orn][dL][Dab][Cha]VTC[Ac3c][Aun]-OH; thioether N-14), for which the IC50 was determined as 0.0385 µM.

For `CC(C)C[C@H]1NC(=O)[C@H](CCCN)NC(=O)[C@H](Cc2ccc(OCC(=O)O)cc2)NC(=O)[C@H](Cc2ccc(-c3ccccc3)cc2)NC(=O)[C@H](Cc2ccc(OCC(=O)O)cc2)NC(=O)[C@H]([C@@H](C)c2c[nH]c3ccccc23)NC(=O)[C@H](CC(=O)O)NC(=O)[C@H](Cc2ccc(OCC(=O)O)cc2)NC(=O)[C@H](CCCNC(=N)N)NC(=O)CSC[C@@H](C(=O)NC2(C(=O)NCCCCCCCCCCC(=O)O)CC2)NC(=O)[C@H]([C@@H](C)O)NC(=O)[C@H](C(C)C)NC(=O)[C@H](CC2CCCCC2)NC(=O)[C@H](CCN)NC1=O` [Compound 2135] ({CH2CO}-RY(Carboxymethyl)D[Trp(βS-Me)]Y(Carboxymethyl)[Bip]Y(Carboxymethyl)[Orn][dL][Dab][Cha]VTC[Ac3c][Aun]-OH; thioether N-14), the concentration for half-maximal inhibition (IC50) is 0.0688 µM.

For the compound `Cc1cccc(C[C@@H]2NC(=O)[C@H](CC(=O)O)NC(=O)[C@H](Cc3ccc(OCC(=O)O)cc3)NC(=O)[C@H](CCCNC(=N)N)NC(=O)CSC[C@@H](C(=O)NC3(C(=O)NCCCCCCCCCCC(=O)O)CC3)NC(=O)[C@H](CCCN)NC(=O)[C@H](C(C)C)NC(=O)[C@H](CC3CCCCC3)NC(=O)[C@H](CCN)NC(=O)[C@@H](CC(C)C)NC(=O)[C@H](CCCN)NC(=O)[C@H](Cc3ccc(OCC(=O)O)cc3)NC(=O)[C@H](Cc3ccc(-c4ccccc4)cc3)NC(=O)[C@H](Cc3ccc(OCC(=O)O)cc3)NC2=O)c1` [Compound 2136] ({CH2CO}-RY(Carboxymethyl)D[Phe(3-Me)]Y(Carboxymethyl)[Bip]Y(Carboxymethyl)[Orn][dL][Dab][Cha]V[Orn]C[Ac3c][Aun]-OH; thioether N-14), the half-maximal inhibitory concentration (IC50) was determined as 0.0031 µM.

On to `Cc1cccc(C[C@@H]2NC(=O)[C@H](CC(=O)O)NC(=O)[C@H](Cc3ccc(OCC(=O)O)cc3)NC(=O)[C@H](CCCNC(=N)N)NC(=O)CSC[C@@H](C(=O)NC3(C(=O)NCCCCCCCCCCC(=O)O)CC3)NC(=O)[C@H](CCC(N)=O)NC(=O)[C@H](C(C)C)NC(=O)[C@H](CC3CCCCC3)NC(=O)[C@H](CCN)NC(=O)[C@@H](CC(C)C)NC(=O)[C@H](CCCN)NC(=O)[C@H](Cc3ccc(OCC(=O)O)cc3)NC(=O)[C@H](Cc3ccc(-c4ccccc4)cc3)NC(=O)[C@H](Cc3ccc(OCC(=O)O)cc3)NC2=O)c1` [Compound 2137] ({CH2CO}-RY(Carboxymethyl)D[Phe(3-Me)]Y(Carboxymethyl)[Bip]Y(Carboxymethyl)[Orn][dL][Dab][Cha]VQC[Ac3c][Aun]-OH; thioether N-14), for which the IC50 worked out at 0.0091 µM.

Turning to `CC(C)C[C@H]1NC(=O)[C@H](CCCN)NC(=O)[C@H](Cc2ccc(OCC(=O)O)cc2)NC(=O)[C@H](Cc2ccc(-c3ccccc3)cc2)NC(=O)[C@H](Cc2ccc(OCC(=O)O)cc2)NC(=O)[C@H]([C@@H](C)c2c[nH]c3ccccc23)NC(=O)[C@H](CC(=O)O)NC(=O)[C@H](Cc2ccc(OCC(=O)O)cc2)NC(=O)[C@H](CCCNC(=N)N)NC(=O)CSC[C@@H](C(=O)N[C@@H](CCN)C(=O)NCCCCCCCCCCC(=O)O)NC(=O)[C@H]([C@@H](C)O)NC(=O)[C@H](C(C)C)NC(=O)[C@H](CC2CCCCC2)NC(=O)[C@H](CCN)NC1=O` [Compound 2138] ({CH2CO}-RY(Carboxymethyl)D[Trp(βS-Me)]Y(Carboxymethyl)[Bip]Y(Carboxymethyl)[Orn][dL][Dab][Cha]VTC[Dab][Aun]-OH; thioether N-14), the half-maximal inhibitory concentration (IC50) amounted to 0.109 µM.

With `Cc1cccc(C[C@@H]2NC(=O)[C@H](CC(=O)O)NC(=O)[C@H](Cc3ccc(OCC(=O)O)cc3)NC(=O)[C@H](CCCNC(=N)N)NC(=O)CSC[C@@H](C(=O)N[C@@H](CCN)C(=O)NCCCCCCCCCCC(=O)O)NC(=O)[C@H]([C@@H](C)O)NC(=O)[C@H](C(C)C)NC(=O)[C@H](CC3CCCCC3)NC(=O)[C@H](CCN)NC(=O)[C@@H](CC(C)C)NC(=O)[C@H](C)NC(=O)[C@H](C(C)(C)O)NC(=O)[C@H](Cc3ccc(-c4ccccc4)cc3)NC(=O)[C@H](Cc3ccc(OCC(=O)O)cc3)NC2=O)c1` [Compound 2139] ({CH2CO}-RY(Carboxymethyl)D[Phe(3-Me)]Y(Carboxymethyl)[Bip][Val(3-OH)]A[dL][Dab][Cha]VTC[Dab][Aun]-OH; thioether N-14), the IC50 is 0.0211 µM.

Take `Cc1cccc(C[C@@H]2NC(=O)[C@H](CC(=O)O)NC(=O)[C@H](Cc3ccc(OCC(=O)O)cc3)NC(=O)[C@H](CCCNC(=N)N)NC(=O)CSC[C@@H](C(=O)N[C@@H](CCN)C(=O)NCCCCCCCCCCC(=O)O)NC(=O)[C@H](CCC(N)=O)NC(=O)[C@H](C(C)C)NC(=O)[C@H](CC3CCCCC3)NC(=O)[C@H](CCN)NC(=O)[C@@H](CC(C)C)NC(=O)[C@H](CCCN)NC(=O)[C@H](C(C)(C)O)NC(=O)[C@H](Cc3ccc(-c4ccccc4)cc3)NC(=O)[C@H](Cc3ccc(OCC(=O)O)cc3)NC2=O)c1` [Compound 2140] ({CH2CO}-RY(Carboxymethyl)D[Phe(3-Me)]Y(Carboxymethyl)[Bip][Val(3-OH)][Orn][dL][Dab][Cha]VQC[Dab][Aun]-OH; thioether N-14): the IC50 is 0.0116 µM.

Consider `Cc1cccc(C[C@@H]2NC(=O)[C@H](CC(=O)O)NC(=O)[C@H](Cc3ccc(OCC(=O)O)cc3)NC(=O)[C@H](Cc3cncn3C)NC(=O)CSC[C@@H](C(=O)N[C@@H](CCN)C(=O)NCCCCCCCCCCC(=O)O)NC(=O)[C@H](CO)NC(=O)[C@H](C(C)(C)O)NC(=O)[C@H](CC3CCCCC3)NC(=O)[C@H](CCN)NC(=O)[C@@H](CC(C)C)NC(=O)[C@H](CCCN)NC(=O)[C@H](Cc3ccc(OCC(=O)O)cc3)NC(=O)[C@H](Cc3ccc(-c4ccccc4)cc3)NC(=O)[C@H](Cc3ccc(OCC(=O)O)cc3)NC2=O)c1` [Compound 2141] ({CH2CO}-[His(π-Me)]Y(Carboxymethyl)D[Phe(3-Me)]Y(Carboxymethyl)[Bip]Y(Carboxymethyl)[Orn][dL][Dab][Cha][Val(3-OH)]SC[Dab][Aun]-OH; thioether N-14), for which the IC50 was 0.0109 µM.

Take `Cc1cccc(C[C@@H]2NC(=O)[C@H](CC(=O)O)NC(=O)[C@H](Cc3ccc(OCC(=O)O)cc3)NC(=O)[C@H](Cc3ccncc3)NC(=O)CSC[C@@H](C(=O)N[C@@H](CCN)C(=O)NCCCCCCCCCCC(=O)O)NC(=O)[C@H]([C@H](C)N)NC(=O)[C@H](C(C)(C)O)NC(=O)[C@H](CC3CCCCC3)NC(=O)[C@H](CCN)NC(=O)[C@@H](CC(C)C)NC(=O)[C@H](CCCN)NC(=O)[C@H](Cc3ccc(OCC(=O)O)cc3)NC(=O)[C@H](Cc3ccc(-c4ccccc4)cc3)NC(=O)[C@H](Cc3ccc(OCC(=O)O)cc3)NC2=O)c1` [Compound 2142] ({CH2CO}-[4Pal]Y(Carboxymethyl)D[Phe(3-Me)]Y(Carboxymethyl)[Bip]Y(Carboxymethyl)[Orn][dL][Dab][Cha][Val(3-OH)][Abu(3S-NH2)]C[Dab][Aun]-OH; thioether N-14): the IC50 came to 0.0091 µM.
